Assay results reported in patent US20070203215A1, “Methods & Compositions For Enhancing Pharmaceutical Treatments” (Taiji Biomedical, Inc., priority 1999, published 2007).

Tests used:
[1] = system: P-gp-expressing Cell Lines; test: Modulation of P-gp-mediated drug resistance in vitro (panel statements); type: cell-based, human
Procedure: The compound of Formula 2 was able to reverse resistance to all classes of P-gp substrates in a wide variety of tumor cell types with EC50s in the low nM range (Table 2). Similar results were obtained with etoposide in several models. Complete reversal of MDR was typically seen with Formula 2 doses between 0.25 and 1.0 μM. Examples with cells expressing extremely high levels of P-gp as a result of drug selection (CEM/VLB1000), moderate levels of P-gp from gene transduction (MDA/LCC6 ^MDR1), and low (intrinsic) levels of P-gp (HCT-15) are illustrated in Table 2. The compound of Formula 2 had no effect on doxorubicin or paclitaxel IC50s in non-P-gp-expressing CCRF-CEM and MDA/LCC6 cells, respectively (FIG. 1, for MDA/LCC6 cells).
Cell proliferation IC50s and MDR reversal EC50s were determined from 3-day dose-response curves carried out in triplicate in 96-well plates essentially as described by Monks et al. (J. Natl. Cancer Inst., 83:757-66, 1991). Cells were plated in standard growth medium at 2.5 or 5.0×10^4 per well (CCRF-CEM and CEM/VLB1000 respectively) or 5×10^3 per well (all other cell lines) in a final volume of 100 μl. After a 2 h incubation for non-adherent cells and overnight incubation for adherent cells, the initial cell density was determined by fluorescence readout of Alamar Blue metabolism. […] Final cell density was determined with Alamar Blue. […]

[2] = system: MDA/LCC6 human breast carcinoma xenografts; test: In vivo antitumor efficacy, non-P-gp-expressing MDA/LCC6 xenografts; set-up: species or system SCID mice; conditions: non-P-gp expressing tumor cells, FIG. 2
Procedure: Anti-tumor efficacy experiments with orthotopic MDA/LCC6 and MDA/LCC6^MDR1 tumors were conducted in female SCID/RAG2 mice. Ascites propagated cells (2×10^6 in 50 μl) were injected into mammary fat pads bilaterally on day 0 before randomization into groups of 5 mice per group. Paclitaxel (12 mg/kg/dose) was administered QD i.v. (tail vein) in 200 μl saline/Cremophor/ethanol (8/1/1 by volume) on days 5, 12, 19, and 26. The compound of Formula 2-free base (30 mg/kg/dose) was administered BID p.o. by gavage in 100 μl PEG 400/Tween 20 (9/1 by volume) on days 4-6, 11-13, 18-20, and 25-27. Mean body weights were recorded at least every other day. Tumor weight was monitored approximately every other day by caliper measurements and calculated according to the formula (Tumor weight =(length×width^2)÷2). This conversion formula was verified by comparing the calculation derived tumor weights to excised and weighed tumors. Animals bearing ulcerated tumors or where tumor weight exceeded 10% of the animal's body weight were terminated. The weights of the bilateral tumors were averaged for each mouse and mean tumor weights for each treatment group±standard error of the mean were calculated. Statistical analysis was carried out by Mann-Whitney test using GraphPad Prism software (San Diego, Calif.).

human CYP3A4 = human CYP3A4 (Homo sapiens, UniProt P08684); test: Inhibition of CYP3A4-mediated paclitaxel metabolism; type: in vitro ADME
Chain of human CYP3A4 (P08684 whole entry): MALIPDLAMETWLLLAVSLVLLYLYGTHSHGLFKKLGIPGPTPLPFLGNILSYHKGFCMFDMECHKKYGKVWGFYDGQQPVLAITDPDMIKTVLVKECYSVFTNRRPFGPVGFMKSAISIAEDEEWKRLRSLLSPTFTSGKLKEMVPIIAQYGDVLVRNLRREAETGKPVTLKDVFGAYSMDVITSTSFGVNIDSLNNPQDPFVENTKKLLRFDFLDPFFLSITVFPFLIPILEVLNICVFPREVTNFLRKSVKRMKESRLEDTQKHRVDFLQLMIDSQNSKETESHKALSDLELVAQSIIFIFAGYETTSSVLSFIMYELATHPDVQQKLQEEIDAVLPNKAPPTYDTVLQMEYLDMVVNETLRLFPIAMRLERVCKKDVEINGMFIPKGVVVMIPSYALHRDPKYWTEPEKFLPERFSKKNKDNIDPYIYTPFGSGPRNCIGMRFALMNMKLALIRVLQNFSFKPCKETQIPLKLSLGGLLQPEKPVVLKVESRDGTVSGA
Excerpt: Two enzymes primarily responsible for metabolism of paclitaxel are P450 CYP3A4 and CYP2C8. Some P-gp inhibitors are also metabolized by P450 CYP 3A4, leading to inhibition of paclitaxel metabolism. This may contribute to PK interactions with paclitaxel.

tumor-bearing mice = conditions: 20 mg/kg paclitaxel with the compound of Formula 2
[3] = Saquinavir in rat cerebrospinal fluid and brain after oral ONT-093 or vehicle; type: in vivo, Sprague Dawley rats; conditions: Group 3: after OC-144-093 20 mg/kg p.o.; 30 min after saquinavir dose; individual animals 3001-3004; 20 mg/kg
Procedure: Blood samples (ca 0.3 mL) were collected from 8 selected rats by jugular venipuncture during slight anesthesia pre-dose and at 0.25, 0.5, 1, 2, 4 and 8 post-dose (saquinavir dose). Cerebrospinal fluid (CSF) and brain tissue were collected terminally from the remaining 8 rats at ca 30 min following administration of the dose of saquinavir. Blood samples were collected into tubes containing EDTA and placed on wet ice pending centrifugation. Plasma, CSF and brain tissue samples were stored at ca −80° C. until analysis of saquinavir by LC/MS. The vehicle used was polyethylene glycol (PEG-400)1 Tween 20 (9:1; v:v).
A total of 16 male Sprague Dawley rats were received from Charles River Canada (Saint-Constant, Quebec). Animals were approximately 9 weeks of age at arrival and weighed ca 312-340 g. Four males were randomly assigned to each of Groups 1, 2, 3 and 4. On the day of dosing and following an overnight fast, animals were weighed (ca 305-323 g) and were administered their respective combination of doses. Animals of Groups 1 and 3 received a single oral dose of ONT-093 (20 mg/kg) by gavage at a dose volume of 2 mL/kg. Animals of Groups 2 and 4 received a single oral dose of the vehicle by gavage at a dose volume of 2 mL/kg. Approximately 30 min following administration of either ONT-093 or the vehicle, all animals received a single oral dose of saquinavir (20 mg/kg) by gavage at a dose volume of 1 mL/kg.
Following administration of saquinavir, blood samples (ca 0.3 mL in EDTA) were obtained from all rats of Groups 1 and 2 by jugular venipuncture during anesthesia with isoflurane (Ohmeda Pharmaceutical Products) at each of the following time-points: pre-dose (prior to administration of ONT-093 or vehicle) and 0.25, 0.5, 1, 2, 4 and 8 hr post-dose. Following administration of saquinavir, CSF was obtained from all animals of Groups 3 and 4 at 30 min following dose administration. CSF was collected (in tubes containing no anticoagulant) from the cistema magna during anesthesia with isoflurane. Following CSF collection, the animals were sacrificed by exsanguination via puncture of the vena cava and the brain was harvested from all these rats. Immediately following collection, all samples (blood, CSF and brain) were placed on ice until further processing or storage. Blood samples were centrifuged (ca 3080 g at ca 4° C. for 10 min) and the resulting plasma samples were stored at ca −80° C. pending analysis. CSF samples and brains were stored at ca −80° C. pending analysis.
Plasma samples, CSF samples and brains were analyzed for unchanged saquinavir using an LC/MS assay. Pharmacokinetic analysis was performed on plasma concentrations using the PhAST Software Program, Version 2.2-00 (Phoenix International Life Sciences Inc.). The highest observable concentration was assumed to be the peak concentration (Cmax); Time to Cmax was denoted Tmax. The area under the plasma concentration versus time-curve from time zero to the last measurable concentration [AUC(tf] was calculated by the linear trapezoidal method. Where applicable, numerical values were subjected to calculation of group means and % CV. Student-T-test with Satterthwaite approximation was performed on AUC and Cmax values to compare ONT-093 treated animals versus vehicle treated animals using SAS software program, Version 6.12 (SAS Institute Inc., Gary, N.C.). Where values were below limit of quantification, zero was used for pharmacokinetic analysis. The bioavailability (F) of saquinavir when administered with ONT-093 was calculated relative to the AUC values obtained from the animals receiving saquinavir following administration of the vehicle.

[4] = mouse, in vivo
Procedure: Non-tumor bearing athymic mice were treated with the compound of Formula 2 and (or) paclitaxel as described.

[5] = Blood-brain barrier penetration of loperamide, mouse hot-plate test; type: in vivo, mice
Excerpt: These increases were dose dependent with respect to loperamide.

SMILES: CCOC/C=C/c1ccc(-c2nc(-c3ccc(NC(C)C)cc3)c(-c3ccc(NC(C)C)cc3)[nH]2)cc1 [Formula 2 compound]
- MDR reversal potency after incubation in human plasma ([1]; human plasma): retained full MDR reversal potency
- EC50s for reversal of resistance to all classes of P-gp substrates ([1]; wide variety of tumor cell types): low nM range
- In vivo anti-tumor activity of paclitaxel [2]: did enhance
- Ki (human CYP3A4): 39.8 ± 5.1 µM
- Ki (CYP3A4) relative to EC50s for reversal of MDR (human CYP3A4; higher): approximately 1000 fold
- Tumor formation (tumor-bearing mice): completely prevented tumor formation at several injection sites
- Saquinavir Concentration in CSF [3]: BLQ
- Effect on paclitaxel toxicity [4]: decreased paclitaxel toxicity
- Effect on hot-plate escape time ([5]; co-administration with loperamide, either 20 mg or 40 mg, dose dependent with respect to loperamide): significant increases
- Mean time to escape the hot-plate ([5]; in the absence of loperamide): 20 s
